One data set deals with T1, HCV NS5B570n-BK (Hepatitis C virus genotype 1b, UniProt P26663).
T1 construct: His tag (N); made in house; host or cells: E. coli strain M15
In words: HCV NS5B RNA polymerase activity. The class given is biochemical, HCV BK strain. The method, then: The enzymatic activity of HCV NS5B570n-BK is measured as incorporation of radiolabeled nucleotide monophosphates into acid insoluble RNA products. Unincorporated radiolabel substrate is removed by filtration and scintillant is added to the washed and dried filter plate containing radiolabeled RNA product. The light emitted by the scintillant is proportional to the amount of RNA product generated by NS5B570n-BK at the endpoint of the reaction.
The N-terminally histidine tagged HCV polymerase, derived from HCV BK strain, genotype 1b (NS5B570n-BK) contains a 21 amino acid deletion at the C-terminus relative to the full-length HCV polymerase and is purified from E. coli strain M15. The construct containing the coding sequence of HCV BK strain amino acid residues 2421-2999 (GenBank accession number M58335) downstream of a […] promoter expression cassette was inserted into plasmid constructs. The plasmid constructs are transformed in E. coli and colonies are inoculated and grown overnight in 10 L of Terrific broth (Tartoff and Hobbs) supplemented with 100 μg/mL ampicillin at 37° C. Protein expression is induced by addition of 1 mM isopropyl-β-D-thiogalactopyranoside (IPTG), when optical densities reaches between 1.5 and 3.5 OD600 and the culture is then incubated for 16- to 18 h at 22° C. NS5B570n-BK is purified to homogeneity using a three step protocol including subsequent column chromatography on Ni-NTA, SP-Sepharose HP and Superdex 75 resins.
Each 50 μl enzymatic reaction contains 8:4 μg/mL polyA:oligo U16 (template:primer), 20 nM or 200 nM NS5B570n-BK enzyme, 1 μCi of tritiated UTP (Perkin Elmer catalog no. TRK412; specific activity: 30 to 60 Ci/mmol; stock solution concentration from 7.5×10^−5 M to 20.6×10^−6 M), 40 mM Tris-HCl pH 8.0, 2 to 40 mM NaCl, 4 mM DTT (dithiothreitol), 4 mM MgCl2, and 5 μl of compound serial diluted in DMSO. Reaction mixtures are assembled in MADVNOB 96-well filter plates (Millipore Co.) and incubated for 2 h at 30° C. Reactions are stopped by addition of 10% (v/v) trichloroacetic acid and incubated for 40 min at 4° C. Reactions are filtered, washed with 8 reaction volumes of 10% (v/v) trichloroacetic acetic acid, 4 reaction volumes of 70% (v/v) ethanol, air dried, and 25 μl of scintillant (Microscint 20, Perkin-Elmer) is added to each reaction well.
The amount of light emitted from the scintillant is converted to counts per minute (CPM) on a Topcount® plate reader (Perkin-Elmer, Energy Range: Low, Efficiency Mode: Normal, Count Time: 1 min, Background Subtract: none, Cross talk reduction: Off).
Data is analyzed with GraphPad® Prism® and/or Microsoft® Excel®. The reaction in the absence of enzyme is used to determine the background signal, which is subtracted from the enzymatic reactions. Positive control reactions are performed in the absence of compound, from which the background corrected activity is set as 100% polymerase activity. All data is expressed as a percentage of the positive control. The compound concentration at which the enzyme-catalyzed rate of RNA synthesis is reduced by 50% (IC50) is calculated by fitting equation (i) to
[formula] the data, where “Y” corresponds to the relative enzyme activity (in %), “% Min” is the residual relative enzymatic activity at saturating compound concentration, “% Max” is the maximal relative enzymatic activity compared to positive control, X corresponds to the compound concentration, and “S” is the Hill coefficient (or slope).
Alternatively the assay can be run as described above with the following modifications. The polyA:oligo U16 homopolymeric RNA template:primer is replaced by the heteropolymeric cIRES RNA template at concentrations of 20 nM or 200 nM. The cIRES RNA template is derived from the complementary sequence of the Internal Ribosome Entry site of the HCV genome (nucleotide 1 through 378 at the 5′-end of the negative strand of the HCV genome (EMBL database accession number AJ238799). The reaction mixture is supplemented with 1 μM ATP, CTP, and GTP […]

The subject of data set [1] is Renilla luciferase HCV replicon cells (2209-23). The experiment in a line: Renilla luciferase assay (HCV replicon). It counts as cell-based. Particulars: 72 h; replicon level, three days incubation. (In general: A replicon is a self-replicating genome or part of one, used to study replication in cells.)

T1 sequence (P26663 2421-2989): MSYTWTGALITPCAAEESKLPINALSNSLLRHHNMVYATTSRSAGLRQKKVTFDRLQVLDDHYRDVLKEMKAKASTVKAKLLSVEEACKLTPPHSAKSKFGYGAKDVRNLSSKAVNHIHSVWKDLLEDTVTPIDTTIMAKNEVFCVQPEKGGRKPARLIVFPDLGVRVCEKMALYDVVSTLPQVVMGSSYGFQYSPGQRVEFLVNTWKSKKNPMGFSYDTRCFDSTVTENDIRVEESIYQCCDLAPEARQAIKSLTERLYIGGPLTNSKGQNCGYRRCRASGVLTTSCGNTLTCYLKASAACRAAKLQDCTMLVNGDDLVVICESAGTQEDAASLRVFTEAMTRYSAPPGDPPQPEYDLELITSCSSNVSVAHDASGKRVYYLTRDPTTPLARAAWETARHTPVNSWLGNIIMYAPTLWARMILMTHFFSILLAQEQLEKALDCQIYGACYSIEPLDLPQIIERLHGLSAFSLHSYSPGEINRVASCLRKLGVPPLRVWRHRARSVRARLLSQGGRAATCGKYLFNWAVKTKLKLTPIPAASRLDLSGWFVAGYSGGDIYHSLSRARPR

On to `NC(=O)COc1ccc2c(c1)S(=O)(=O)C=C(c1c(O)c3cc(F)ccc3n(Cc3ccc(F)cc3)c1=O)N2` [Compound I-20, 2-{3-[6-Fluoro-1-(4-fluoro-benzyl)-4-hydroxy-2-oxo-1,2-dihydro-quinolin-3-yl]-1,1-dioxo-1,4-dihydro-1λ^6-benzo[1,4]thiazin-7-yloxy}-acetamide], for which the IC50 (as a rule, the concentration at which inhibition is half-maximal) worked out at 150 nM against HCV NS5B570n-BK (200 nM polyA: oligo U16) and 1050 nM in data set [1].
Take `CS(=O)(=O)Nc1ccc2c(c1)S(=O)(=O)C=C(c1c(O)c3cc(F)ccc3n(Cc3ccc(F)cc3)c1=O)N2` [Compound I-24, N-{3-[6-Fluoro-1-(4-fluoro-benzyl)-4-hydroxy-2-oxo-1,2-dihydro-quinolin-3-yl]-1,1-dioxo-1,4-dihydro-1λ^6-benzo[1,4]thiazin-7-yl}-methanesulfonamide]: the IC50 is 5.5 nM on HCV NS5B570n-BK (20 nM cIRES), 67 nM on HCV NS5B570n-BK (200 nM cIRES), 151 nM at HCV NS5B570n-BK (200 nM polyA: oligo U16) and 13 nM in data set [1].
As for `NS(=O)(=O)Nc1ccc2c(c1)S(=O)(=O)C=C(c1c(O)c3cc(F)ccc3n(CCC3CC3)c1=O)N2` [Compound I-40, 1-{3-[1-(2-cyclopropyl-ethyl)-6-fluoro-4-hydroxy-2-oxo-1,2-dihydro-quinolin-3-yl]-1,1-dioxo-1,4-dihydro-1λ^6-benzo[1,4]thiazin-7-yl}-sulfamide], the melting point (as a rule, the temperature, or range, at which the solid turns liquid) lay in the range of 183 to 186 °C. Also, the IC50 at HCV NS5B570n-BK (200 nM polyA: oligo U16) worked out at 350 nM. Half-maximal inhibition in data set [1] (IC50) required 9 nM.
Regarding `CC(C)(C)[C@H]1C(O)=C(C2=CS(=O)(=O)c3cc(NS(C)(=O)=O)ccc3N2)C(=O)N1Cc1ccc(F)c(Cl)c1` [II-11, N-{3-[(S)-5-tert-Butyl-1-(3-chloro-4-fluoro-benzyl)-4-hydroxy-2-oxo-2,5-dihydro-1H-pyrrol-3-yl]-1,1-dioxo-1,4-dihydro-1λ^6-benzo[1,4]thiazin-7-yl}-methanesulfonamide], the half-inhibitory concentration (IC50) against HCV NS5B570n-BK (20 nM cIRES) was 4.6 nM; in data set [1], 9 nM.
For `CS(=O)(=O)Nc1ccc2c(c1)S(=O)(=O)C=C(c1c(O)c3cc(F)c(F)cc3n(Cc3ccc(F)cc3)c1=O)N2` [Compound I-69, N-{3-[6,7-Difluoro-1-(4-fluoro-benzyl)-4-hydroxy-2-oxo-1,2-dihydro-quinolin-3-yl]-1,1-dioxo-1,4-dihydro-1λ^6-benzo[1,4]thiazin-7-yl}-methanesulfonamide] the same measures were 14.4 nM and 15 nM.
The compound `CCS(=O)(=O)Nc1ccc2c(c1)S(=O)(=O)C=C(c1c(O)c3cc(F)ccc3n(CCC3CC3)c1=O)N2` [Compound I-32, ethanesulfonic acid {3-[1-(2-cyclopropyl-ethyl)-6-fluoro-4-hydroxy-2-oxo-1,2-dihydro-quinolin-3-yl]-1,1-dioxo-1,4-dihydro-1λ6-benzo[1,4]thiazin-7-yl}-amide] returned a melting point of 140 to 142 °C. Moreover, the IC50 against HCV NS5B570n-BK (20 nM cIRES) worked out at 7.3 nM. In addition, on HCV NS5B570n-BK (200 nM polyA: oligo U16), the IC50 worked out at 220 nM. Besides, in data set [1], the IC50 was 5 nM.
